One data set concerns the target T1, human URAT1 (Homo sapiens, UniProt Q96S37).
T1 construct: The full-length hURAT1 cDNA was obtained from the vector pCMV6-XL5 and subcloned into the expression vector pCMV6-Neo
T1 sequence (Q96S37 1-553): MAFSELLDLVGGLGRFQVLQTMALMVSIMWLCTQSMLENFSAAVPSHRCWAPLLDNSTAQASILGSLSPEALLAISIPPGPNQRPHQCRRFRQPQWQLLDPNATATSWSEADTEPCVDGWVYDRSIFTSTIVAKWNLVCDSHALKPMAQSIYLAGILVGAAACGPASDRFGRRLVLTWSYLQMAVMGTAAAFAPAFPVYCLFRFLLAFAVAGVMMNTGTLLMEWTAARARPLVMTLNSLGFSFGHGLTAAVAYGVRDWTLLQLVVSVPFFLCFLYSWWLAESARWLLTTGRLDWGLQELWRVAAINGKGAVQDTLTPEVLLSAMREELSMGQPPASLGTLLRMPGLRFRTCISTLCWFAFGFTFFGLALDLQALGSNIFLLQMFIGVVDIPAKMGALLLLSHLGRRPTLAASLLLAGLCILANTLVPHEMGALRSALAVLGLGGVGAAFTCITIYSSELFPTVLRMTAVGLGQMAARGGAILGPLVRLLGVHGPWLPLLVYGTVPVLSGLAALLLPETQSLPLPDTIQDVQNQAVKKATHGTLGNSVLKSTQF
Nature of the data set: URAT1 inhibition assay, [8-14C] urate uptake in hURAT1-HEK cells. Format: cell-based. As to conditions: 50 μM [8-14C] urate. The procedure:
A suitable assay involves transfection of cells (e.g. human embryonic kidney cells; “HEK”) with a vector encoding human URAT1, followed by determination of the ability of transfected cells to take up radiolabeled uric acid. The activity of compounds as URAT1 inhibitors is evaluated by their ability to block uric acid uptake by transfected cells.
Urate (50-60 mCi/mmol; American Radio Chemicals, Cat. No. ARC0513).
Plasmid vector pCMV6-XL5 containing hURAT1 cDNA (Cat. No. SC125624) and the expression vector pCMV6-Neo (Cat. No. pCMVNEO) were obtained from OriGene Technologies, Inc. The full-length hURAT1 cDNA was obtained from the vector pCMV6-XL5 and subcloned into the expression vector pCMV6-Neo to create the hURAT1 expression plasmid pCMV6-hURAT1. The sequences were verified by automatic DNA sequencing.
For transfection experiments, cells were plated on 60 mm dishes in 1 ml media per dish. […] Stable transfectants expressing hURAT1 (herein after referred as hURAT1-HEK cells) or cells having only the expression vector pCMV6-Neo (herein after referred as mock-HEK cells) were verified using reverse transcription polymerase chain reaction (RT-PCR) methods.
Before the uptake assay started, the culture medium was removed and the cells were incubated for 5 min in 0.6 ml of HBSS. After that HBSS was removed, the prepared reaction solutions were added into each well and incubated for 5 min at room temperature. Then the reaction solution was removed, cells were washed twice with 0.6 ml of cold HBSS and lysed with 0.2 ml of 0.1 M NaOH for 20 min. […] Test compounds were dissolved in DMSO and the same concentration of DMSO was added into the wells of mock-HEK cells and the hURAT1-HEK cells that didn't contain test compounds. For each test compound, the uptake assay was performed 2 times and carried out in triplicate. Urate uptake of the cells for each test condition was presented as the average percent inhibition in comparison to the DMSO control. The radioactivity values obtained for the wells that contained DMSO were taken as 100% uptake of the cells. The observed concentration-percent inhibition data were fitted to a sigmoidal concentration-effect model, where: IC50^Slope=[(100*Conc^Slope)/% Inhibition]−Conc^Slope
Additional drug concentrations were tested for determination of IC-50 values for some compounds (Table 6).

The nature of data set [1]: Rat oral single-dose pharmacokinetic study. It is filed as in vivo. As to conditions: 100 mg/kg single oral gavage. The procedure:
• 1. Male Sprague-Dowley rats received single oral gavage of Compound EH, 100 mg/kg, and plasma was collected at certain times. • 2. Rat plasma was stored at −80° C. until the day of analysis. • 3. Samples were thawed on 37° C. bath for 5 min and vortexed at top speed for 10 sec. • 4. Rat plasma, 0.1 mL was mixed with 0.2 mL Acetonitrile, vortexed 1 min, spun down 14000 rpm, 17000 g, at 4° C., for 25 min. • 5. Supernatants were filtered through 0.45 micron, 4 mm, PTFE membrane syringe filter (Phenomenex #AF0-3102-52), and 15 microL were injected and resolved on Luna 3 micron, 100 A pore, C8(2), 150×3 mm, reverse phase column (Phenomenex#00F-4248-YO, SN#259151-7) in 50 min linear gradient from 40% to 69% of (0.1% Formic Acid, 89.9% Acetonitrile, 10% Methanol) at 0.25 mL/min, 107 bar, 37° C. column temperature, method 406975M1, Sequence 0226-09A, Agilent 1100 LC-MS.
All samples were run in duplicate, 210 nm and 230 nm Absorbances, Negative and Positive ionization spectrograms recorded.
Step 1. Rat plasma from V2 and V3 animals (“vehicle”, pooled), 0.19 mL, was mixed with 0.01 mL 20× stock of Compound EH in Methanol to make 500 microM, 250 microM, 125 microM, . . . , concentrations of Compound EH in plasma.
For example: 190 microL plasma+10 microL of 10 mM Compound EH in methanol=0.2 mL plasma with 500 microM Compound EH.
Step 2. Samples from step 1 were vortexed for 10 sec at top speed.
Step 3. 0.4 mL of acetonitrile was added to all samples from Step 2, and all vials were vortexed at top speed for 1 min.
Step 4. All samples from step 3 were spun down 14000 rpm, 17000 g, at 4° C., for 25 min.
Step 5. Supernatants were filtered through 0.45 micron, 4 mm, PTFE membrane syringe filter (Phenomenex #AF0-3102-52), 15 microL were injected and resolved on Luna 3 micron, 100 A pore, C8(2), 150×3 mm, reverse phase column

The results in this text go back to patent US9115072B2, “Compounds and method for reducing uric acid” (WELLSTAT THERAPEUTICS CORPORATION, priority 2008, dated 2015).

What is called IC50 is the concentration needed to halve the response being measured. High values mean weaker potency, low ones greater potency. Broadly, the inhibition is the change of the read-out against control, counted positive when it falls. The Cmax is the maximum level reached in the sampled fluid or tissue.

As to `Cc1ccc(CC(=O)O)cc1OCc1c(C)cccc1C` [Compound EH, 2-(3-(2,6-Dimethylbenzyloxy)-4-methylphenyl)acetic acid], the IC50 at human URAT1 was 80 nM. The inhibition at 10 µM at human URAT1 (drug concentration typically 10 micromolar, read-out: % of Inhibition (uric acid uptake)) was 95.9%. Further, in data set [1] (male, Sprague-Dawley, rat, plasma, time 0 HR, read-out: Compound EH concentration in rat plasma), the concentration at 0 h was 0 nM. Besides, the concentration at 0.25 h in data set [1] (male, Sprague-Dawley, rat, plasma, time 0.25 HR, read-out: Compound EH concentration in rat plasma) was found to be 349 µM. Also, the concentration at 0.5 h in data set [1] (male, Sprague-Dawley, rat, plasma, time 0.5 HR, read-out: Compound EH concentration in rat plasma) is 723 µM. In addition, in data set [1] (male, Sprague-Dawley, rat, plasma, time 2 HR, read-out: Compound EH concentration in rat plasma), the concentration at 2 h is 79 µM. Besides, the concentration at 4 h in data set [1] (male, Sprague-Dawley, rat, plasma, time 4 HR, read-out: Compound EH concentration in rat plasma) turned out to be 126 µM. Further, the concentration at 6 h in data set [1] (male, Sprague-Dawley, rat, plasma, time 6 HR, read-out: Compound EH concentration in rat plasma) is 112 µM. Moreover, the concentration at 8 h in data set [1] (male, Sprague-Dawley, rat, plasma, time 8 HR, read-out: Compound EH concentration in rat plasma) was 48 µM. Also, the concentration at 24 h in data set [1] (male, Sprague-Dawley, rat, plasma, time 24 HR, read-out: Compound EH concentration in rat plasma) was determined as 0 nM. The Cmax in data set [1] (male, Sprague-Dawley, rat plasma) amounted to 723 µM. Also, the “AUC(0-24)” value in data set [1] (rat plasma) was determined as 1765 µM·h.
